Experimental data from patent publication US10189826B2, “Heterocyclic compounds and methods of use” (Medivation Technologies LLC, priority 2015, dated 2019).
Where two headings read alike, the source gives them in different places.

Experiments:
[1] = system: SREBP-2 transcriptional activity (SREBP2 cleavage) in HepG2_LSSprom cells; experiment: Luciferase reporter driven by a SREBP-2 specific promoter in HepG2_LSSprom cells; assay type: cell-based; settings: read-out: SREBP2 Cleavage (IC50 μM) 24 h
Experimental: Dose response effects were measured of Compounds on the transcriptional activity of a Luciferase reporter driven by a SREBP-2 specific promoter in HepG2_LSSprom cells.
(§1) HepG2_LSSprom cells (SwitchGear Genomics, cat# C711010L) were cultured in DMEM with 10% of fetal bovine serum (FBS), supplemented with Puromycin (1 μg/mL), 1% Penicillin/Streptomycin (Pen-Strep), 37° C., humidified, 95% air and 5% CO2. Culture media was refreshed every 2 or 3 days. Cells were used between passage number 6-12.
For luminescence assays, cells were plated out at 20,000 cells/well in white 96 well plates in DMEM plus 10% FBS and 1% Pen-Strep without puromycin. After 1 day, cells were treated with Compound by diluting the drug in culture medium without FBS to a final concentration of 0.625, 1.25, 2.5, 3.75, 5 and 10 μM. Drug was prepared by dilutions of 10 mM stock aliquots. As control was used culture medium without FBS plus DMSO. Treatments with Compound were maintained for 6 h, or 24 h, until the luciferase assay was carried out.
After 6 h of treatments with Compound, the luciferase assay was performed. Briefly, the assay solution (buffer+substrate) was prepare just prior to use. To each well 100 μL of assay solution was added. The 96-well plate was then gently mix for 2 min and incubated for 30 min at RT protected from light. The luminescence was read using a Synergy 4 (Biotek) equipment recording luminescence with sensibility set up at 150.
(§2) Five independent experiments were carried out for both luciferase and cytotoxicity assay. In each experiment, three wells were use per condition and the results are represented as means±SEM.
For luciferase assay, Vehicle (no treatment) was taken as 100% of luciferase activity. This value represents the SREBP-2 transcriptional activity for the vehicle condition and was taken as 100% of SREBP-2 cleaved. The percentage for each treatment was calculated normalizing against the vehicle control. The graphics were made using the GraphPad Prism ver. 6.05 software. Half of maximal inhibitory concentration (IC50) of the effect of Compound on SREBP was obtain by nonlinear fit regression of mean normalized values vs. Compound concentration using the log(inhibitor) vs. response−Variable slope (four parameters) tool.

[2] = Cytotoxicity assay (LDH release) in HepG2_LSSprom cells; assay type: cell-based; settings: human, 24 h treatment, LDH release
Experimental: as §1
For cytotoxicity assays, cells were plated out at 20,000 cells/well in transparent 96 well plates in DMEM plus 10% FBS and 1% Pen-Strep without puromycin. After 1 day, cells were treated with Compound by diluting in culture medium without FBS to a final concentration of 0.625, 1.25, 2.5, 3.75, 5 and 10 μM. Compound was prepared by dilutions of 10 mM stock aliquots. As a negative control culture medium was used without FBS plus DMSO. As maximum LDH release control (Lysis control) a lysis buffer provided by the kit manufacturer was used. Treatments with Compound were maintained for 6 h, or 24 h, in cell culture medium without serum until the cytotoxicity assay was started.
The cytotoxicity assay was performed according to the manufacturer's instructions. As maximum LDH release control (Lysis control) 3 wells per plate were treated with 10 μL of lysis buffer 45 min before the treatment was over. Briefly, after the 6 h, or 24 h, of treatment, 50 μL of media from each well was transferred to a new 96-well plate. To the transferred media, 50 μL of reconstituted substrate mix was added. The plates were covered from light and incubated at RT for 10 min. Then, 50 μL of stop solution was added to each well. The plates were then read using a Synergy 4 (Biotek) equipment recording the absorbance at 490 nm.
as §2
For cytotoxicity assay, Lysis control was taken as 100%/o of LDH release. The vehicle values were taken as basal LDH release and were subtracted to all the treatments (including vehicle itself) having this value as 0% of LDH release. The LDH release for the treatments was calculated respect to the 100% of LDH release of Lysis control normalized against vehicle. All the negatives values were taken as 0% of cytotoxicity. The graphics were made using the Graph Prism ver. 6.05 software.

[3] = 24 h, 24 h treatment, HepG2_LSSprom cells

Compound | IC50 [1, 3] [µM] | IC50 at 24 h ([2]; HepG2 LSSprom cells) [µM] | IC50 ([1]; 24 h) [µM] | IC50 ([1]; 24 h treatment, HepG2_LSSprom cells) [µM] | IC50 at 24 h [2] [µM]
CC(C)(C)c1cc(-c2cc(-c3ccc(C(=O)N4CCOCC4)cc3Cl)cs2)ccn1 [Compound 22, 4-{4-[5-(2-tert-butylpyridin-4-yl)thiophen-3-yl]-3-chlorobenzoyl}morpholine] | 0.82 | > 3 |  |  | 
CC(C)(C)c1cc(-c2cc(-c3ccc(C(=O)Nc4ccccc4)cc3Cl)cs2)ccn1 [Compound 23, 4-[5-(2-tert-butylpyridin-4-yl)thiophen-3-yl]-3-chloro-N-phenylbenzamide] |  | > 10 | 0.48 |  | 
CC(C)(C)c1cc(-c2nc(-c3ccc(C(=O)N4CCC(F)(F)CC4)cc3Cl)c[nH]2)ccn1 [Compound 24, 2-tert-butyl-4-{4-[2-chloro-4-(4,4-difluoropiperidine-1-carbonyl)phenyl]-1H-imidazol-2-yl}pyridine] | > 3 | > 10 |  | 2.7 | 
CC(C)(C)c1cc(-c2nc(-c3ccc(C(=O)N4CCCCC4)cc3Cl)c[nH]2)ccn1 [Compound 25, 2-tert-butyl-4-{4-[2-chloro-4-(piperidine-1-carbonyl)phenyl]-1H-imidazol-2-yl}pyridine] | 0.62 | > 10 |  |  | 
CN1CCc2cc(-c3csc(-c4ccnc(C(C)(C)C)c4)c3)ccc2C1=O [Compound 26, 6-[5-(2-tert-butylpyridin-4-yl)thiophen-3-yl]-2-methyl-1,2,3,4-tetrahydroisoquinolin-1-one] | > 3 | > 10 |  |  | 
CC(C)(C)OC(=O)N1CCN(C(=O)c2ccc(-c3csc(-c4ccnc(C(C)(C)C)c4)c3)c(Cl)c2)CC1 [Compound 27, tert-butyl 4-{4-[5-(2-tert-butylpyridin-4-yl)thiophen-3-yl]-3-chlorobenzoyl}piperazine-1-carboxylate] | 0.68 | > 10 |  |  | 
CC(C)(C)c1cc(-c2cc(-c3ccc(C(=O)N4CCNCC4)cc3Cl)cs2)ccn1 [Compound 28, 1-{4-[5-(2-tert-butylpyridin-4-yl)thiophen-3-yl]-3-chlorobenzoyl}piperazine] | > 3 | > 10 |  |  | 
CC(=O)N1CCN(C(=O)c2ccc(-c3csc(-c4ccnc(C(C)(C)C)c4)c3)c(Cl)c2)CC1 [Compound 29, 1-(4-{4-[5-(2-tert-butylpyridin-4-yl)thiophen-3-yl]-3-chlorobenzoyl}piperazin-1-yl)ethan-1-one] | 1.4 | > 10 |  |  | 
CC(C)(C)c1cc(-c2cc(-c3ccc(C(=O)N4CCN(S(C)(=O)=O)CC4)cc3Cl)cs2)ccn1 [Compound 30, 1-{4-[5-(2-tert-butylpyridin-4-yl)thiophen-3-yl]-3-chlorobenzoyl}-4-methane sulfonylpiperazine] | 2.5 | > 10 |  |  | 
CC(C)N(C(=O)c1ccc(-c2csc(-c3ccnc(C(C)(C)C)c3)c2)c(Cl)c1)C(C)C [Compound 33, 4-[5-(2-tert-butylpyridin-4-yl)thiophen-3-yl]-3-chloro-N,N-bis(propan-2-yl) benzamide] | 0.21 | > 10 |  |  | 
CC(C)N1CCc2cc(-c3csc(-c4ccnc(C(C)(C)C)c4)c3)ccc2C1=O [Compound 35, 6-[5-(2-tert-butylpyridin-4-yl)thiophen-3-yl]-2-(propan-2-yl)-1,2,3,4-tetrahydroisoquinolin-1-one] | 2.4 | > 10 |  |  | 
CC(C)(C)OC(=O)NC1CCN(C(=O)c2ccc(-c3csc(-c4ccnc(C(C)(C)C)c4)c3)c(Cl)c2)CC1 [Compound 37, tert-butyl N-(1-{4-[5-(2-tert-butylpyridin-4-yl)thiophen-3-yl]-3-chlorobenzoyl}piperidin-4-yl)carbamate] | 0.91 | > 10 |  |  | 
CC(=O)NC1CCN(C(=O)c2ccc(-c3csc(-c4ccnc(C(C)(C)C)c4)c3)c(Cl)c2)CC1 [Compound 38, N-(1-{4-[5-(2-tert-butylpyridin-4-yl)thiophen-3-yl]-3-chlorobenzoyl}piperidin-4-yl) acetamide] | 2.1 | > 10 |  |  | 
CCN1CCN(C(=O)c2ccc(-c3csc(-c4ccnc(C(C)(C)C)c4)c3)c(Cl)c2)CC1=O [Compound 39, 4-{4-[5-(2-tert-butylpyridin-4-yl)thiophen-3-yl]-3-chlorobenzoyl}-1-ethylpiperazin-2-one] |  | > 10 | 6.2 |  | 
CC(C)(C)c1cc(-c2csc(-c3ccc(C(=O)N4CCC(F)(F)CC4)cc3Cl)c2)ccn1 [Compound 40, 2-tert-butyl-4-{5-[2-chloro-4-(4,4-difluoropiperidine-1-carbonyl)phenyl]thiophen-3-yl}pyridine] | 0.15 | > 10 |  |  | 
CN(C(=O)c1ccc(-c2csc(-c3ccnc(C(C)(C)C)c3)c2)c(Cl)c1)c1ccccc1 [Compound 41, 4-[5-(2-tert-butylpyridin-4-yl)thiophen-3-yl]-3-chloro-N-methyl-N-phenyl benzamide] | 0.39 | > 10 |  |  | 
CC(C)(C)c1cc(-c2cc(-c3ccc(C(=O)N4CCC4)cc3Cl)cs2)ccn1 [Compound 42, 4-{4-[4-(azetidine-1-carbonyl)-2-chlorophenyl]thiophen-2-yl}-2-tert-butylpyridine] |  | > 10 | 0.84 |  | 
CC(C)(C)c1cc(-c2cc(-c3ccc(C(=O)N4CC5(COC5)C4)cc3Cl)cs2)ccn1 [Compound 43, 6-{4-[5-(2-tert-butylpyridin-4-yl)thiophen-3-yl]-3-chlorobenzoyl}-2-oxa-6-azaspiro[3.3]heptane] | 3.8 |  |  |  | > 10
CCOC(=O)NC1CCCN(C(=O)c2ccc(-c3csc(-c4ccnc(C(C)(C)C)c4)c3)c(Cl)c2)C1 (stereo not shown) [Compound 44, ethyl N-(1-{4-[5-(2-tert-butylpyridin-4-yl)thiophen-3-yl]-3-chlorobenzoyl}piperidin-3-yl)carbamate] |  | > 10 | 0.44 |  | 
CCOC(=O)N1CCN(C(=O)c2ccc(-c3csc(-c4ccnc(C(C)(C)C)c4)c3)c(Cl)c2)CC1 [Compound 45, ethyl 4-{4-[5-(2-tert-butylpyridin-4-yl)thiophen-3-yl]-3-chlorobenzoyl}piperazine-1-carboxylate] |  | > 10 | 1.8 |  | 
CC(C)(C)C(=O)N1CCN(C(=O)c2ccc(-c3csc(-c4ccnc(C(C)(C)C)c4)c3)c(Cl)c2)CC1 [Compound 46, 1-(4-{4-[5-(2-tert-butylpyridin-4-yl)thiophen-3-yl]-3-chlorobenzoyl}piperazin-1-yl)-2,2-dimethylpropan-1-one] | 1.3 | > 10 |  |  | 
CCN(CCNC(C)=O)C(=O)c1ccc(-c2csc(-c3ccnc(C(C)(C)C)c3)c2)c(Cl)c1 [Compound 47, N-[2-(1-{4-[5-(2-tert-butylpyridin-4-yl)thiophen-3-yl]-3-chlorophenyl}-N-ethylformamido)ethyl]acetamide] | 0.33 | > 10 |  |  | 
CC(C)(C)c1cc(-c2cc(-c3ccc(C(=O)N4CCCC(O)C4)cc3Cl)cs2)ccn1 (stereo not shown) [Compound 48, 1-{4-[5-(2-tert-butylpyridin-4-yl)thiophen-3-yl]-3-chlorobenzoyl}piperidin-3-ol] | 0.26 | > 10 |  |  | 
CC(C)(C)c1cc(-c2cc(-c3ccc(C(=O)N4CCC[C@@H](O)C4)cc3Cl)cs2)ccn1 [Compound 48a, (R)-(4-(5-(2-(tert-butyl)pyridin-4-yl)thiophen-3-yl)-3-chlorophenyl)(3-hydroxypiperidin-1-yl)methanone] | 0.31 | > 10 |  |  | 
